A compilation of properties of binary mixtures (doi:10.1039/b704843b)

Test: xn = mol fraction of the nth substance listed
Conditions: 101 kPa

O + CCCC[n+]1ccn(C)c1.F[P-](F)(F)(F)(F)F
x1 = 1
Conditions | viscosity [mPa·s]
298.15 K | 0.894
308.15 K | 0.717
313.15 K | 0.659

CCCC[n+]1ccn(C)c1.F[P-](F)(F)(F)(F)F + O
viscosity [mPa·s]
Conditions | 298.15 K | 303.15 K | 308.15 K | 313.15 K | 318.15 K
x1 = 0.0003 | 0.909 | 0.809 | 0.72 | 0.662 | 0.604
x1 = 0.0006 | 0.917 | 0.815 | 0.725 | 0.667 | 0.609
x1 = 0.001 | 0.923 | 0.822 | 0.73 | 0.672 | 0.614
x1 = 0.0013 | – | 0.83 | 0.737 | 0.678 | 0.62
